The nature of series [1]: tolerability in xenograft studies (body weight, deaths, MTD). As to the method:
For the first in vivo experiment, tumor fragments (5×5 mm) from untreated donor animals were implanted subcutaneously into both flanks of recipient mice. Treatment was initiated 6 days after transplantation (=day 0, median tumor volume of ˜70 mm^3). Animals were randomized into groups following Lindner's randomization tables and treated by oral gavage with 5 mg/kg/d RHPS4 or vehicle (phosphate buffered saline) respectively (n=5-8 animals per group). […] Drug administration was repeated twice weekly for 8 times (Q3dx8) after randomization. Tumor growth was followed twice weekly by serial caliper measurement, body weights were recorded, and tumor volumes were calculated using the standard formula (length×width^2)/2, where length is the largest dimension and width the smallest dimension perpendicular to the length (Alley et al., 2004; Geran et al., 1972). The median relative tumor volume was plotted against time. Relative tumor volumes were calculated for each single tumor by dividing the tumor volume on day X by that on day 0 (time of randomization). Growth curves were analyzed in terms of tumor inhibition (treated/control, T/C, calculated as median tumor weight of treated divided by median tumor weight of control animals times 100). Statistical data analysis was done using non-parametrical Wilcoxon Mann-Whitney statistics. Median relative tumor volumes of each treatment group were compared with those of the vehicle control groups. P values less than 0.05 were considered statistically significant. SPSS 2000, SYSTAT version 10 software was used.
To conduct combination treatment with Paclitaxel, after 4 serial propagations of RHPS4 treated tumor tissue in nude mice (FIG. 1), RHPS4 was combined with Paclitaxel. Single agent Paclitaxel was given at 20 mg/kg i.v. on days 1 and 15. In combination with RHPS4 (given at 5 mg/kg p.o. twice weekly), only a single dose of Paclitaxel (20 mg/kg i.v.) was administered on day 1. Tumor growth parameters and body weight were assessed as described above.

For series [2], the system named is human cord blood mononuclear cells. The experiment in a line: methylcellulose colony assay. It is filed as cell-based. As to the method: The UXF1138L uterus carcinoma cell line was originally established from a patient tumor by Prof. Heiner Fiebig at the University of Freiburg, Germany (Fiebig and Burger, 2001). All animal experiments were conducted under an animal license approved by the German Federal Government (Regierungspräsidium Freiburg) and in compliance with the UKCCCR guidelines on experimental neoplasia (Workman et al., 1998). Six to eight weeks old female thymus aplastic nude mice of NMRI genetic background were used for establishment and serial propagation of the human tumor xenograft from the cell line. PC3 and MCF-7 cells were obtained from American Type Culture Collection, Manassas, Va. The HEK293T human embryonic kidney cell line was a kind gift from Dr. Arun Seth, Sunnybrook Health Sciences Centre, Toronto, CA. Umbellical vein cord blood was freshly obtained from a hospital maternity ward with the consent of the respective patient, specimens were anonymized. The cord blood was collected into a BD Vacutainer CPT™ and the mononuclear fraction isolated by centrifugation following the manufacturers instructions.
In human tumor stem cell assay (HTCA)/clonogenic assay, single cell suspensions from in vivo studies above were washed in medium and passed through sieves and the resulting single cell suspensions seeded into soft agar (n=3 tumors per group) as described by us before (Fiebig et al., 2004). Single cell suspensions of cell lines were prepared by trypsinization from cells growing as monolayers on plastic. Briefly, 5,000 (HEK293T cells), 10,000 (PC3, MCF-7 and UXF1138L cells) or 50,000 (UXF1138L tumor tissue) vital cells were added to 0.2 ml Iscove's medium/20% fetal bovine serum/0.05% gentamycin containing 0.4% agar and plated on top of a base layer consisting of 0.2 ml medium with 0.75% agar. The next day, the agar layers were fed with Isocve's medium and cultures incubated at 37° C., 7% CO2 for approximately 11 days. Vital colonies were stained with 2-(4-iodophenyl)-3-(4-nitrophenyl)-5-phenyltetrazolium chloride (1 mg/ml) 24 hrs before evaluation, and colonies >70 μm were counted with an automated image analysis system (Omincon FAS IV, BIOSYS GmbH, Karben, Germany). Drug effect was assessed as growth inhibitory concentrations 50 and 70% (IC50, IC70). Methylcellulose was used to grow cord blood stem cells instead of soft agar. The seeding density was 20,000 cells/well. Stem cell growth factor supplemented and optimized methylcellulose (Methocult H4434) was purchased from Stem Cell Technologies (Vancouver, CA). Methylcellulose lacking growth factors was used as negative growth control. Statistical significance between treatment groups was evaluated by using the Student T-test. […]

The subject of series [3] is HEK293T human embryonic kidney cells. Nature of the series: HTCA colony assay on normal embryonic kidney cells. It is filed as cell-based. As to the method:
In human tumor stem cell assay (HTCA)/clonogenic assay, single cell suspensions from in vivo studies above were washed in medium and passed through sieves and the resulting single cell suspensions seeded into soft agar (n=3 tumors per group) as described by us before (Fiebig et al., 2004). Single cell suspensions of cell lines were prepared by trypsinization from cells growing as monolayers on plastic. Briefly, 5,000 (HEK293T cells), 10,000 (PC3, MCF-7 and UXF1138L cells) or 50,000 (UXF1138L tumor tissue) vital cells were added to 0.2 ml Iscove's medium/20% fetal bovine serum/0.05% gentamycin containing 0.4% agar and plated on top of a base layer consisting of 0.2 ml medium with 0.75% agar. The next day, the agar layers were fed with Isocve's medium and cultures incubated at 37° C., 7% CO2 for approximately 11 days. Vital colonies were stained with 2-(4-iodophenyl)-3-(4-nitrophenyl)-5-phenyltetrazolium chloride (1 mg/ml) 24 hrs before evaluation, and colonies >70 μm were counted with an automated image analysis system (Omincon FAS IV, BIOSYS GmbH, Karben, Germany). Drug effect was assessed as growth inhibitory concentrations 50 and 70% (IC50, IC70). Methylcellulose was used to grow cord blood stem cells instead of soft agar. The seeding density was 20,000 cells/well. Stem cell growth factor supplemented and optimized methylcellulose (Methocult H4434) was purchased from Stem Cell Technologies (Vancouver, CA). Methylcellulose lacking growth factors was used as negative growth control. Statistical significance between treatment groups was evaluated by using the Student T-test.
To assess RHPS4 effects on normal stem cells, the human embryonic kidney cell line HEK293T was exposed to drug in the MTT and HTCA assays, and tested RHPS4 effects on colony forming units of the mononuclear cell fraction of human cord blood in methyl cellulose (FIG. 2C). The cord blood colony assay was performed with and without colony stimulating growth factors, only methylcellulose containing growth factors grew colonies. […] Additionally, in normal cell types as compared to tumor cells, low and pharmacodynamically relevant concentrations of RHPS4 (0.01 to 1 microM) did induce colony formation (FIG. 2C). To assure that the induction of colony growth by RHPS4 in normal stem cells is reproducible, cord blood from three different individuals and HEK293T cells from different passages were used. Data shown in FIG. 2C represent the mean and standard deviation from three independent experiments. […] However, the plating efficiency (actual number of colonies growing per total number of cells seeded) varied among the experiments and therefore the results are shown as % of control growth. E.g. HEK293T control colony growth ranged from a mean number of 54 to 463 colonies per well, but the least percentage (cut-off level) of growth induction by RHPS4 observed in either, the individual HEK293T or the cord blood experiments, was 150%. […] Instead, at RHPS4 levels that induced colony growth 2.4-fold (1 mircoM), bulk cell growth was inhibited to 60% of control (FIG. 2C).

The structures appear in SMILES notation.

Regarding `COS(=O)(=O)[O-].Cc1cc2c3c([n+](C)c4ccc(F)cc4c3c1)-c1cc(F)ccc1N2C` [RHPS4, 3,11-difluoro-6,8,13-trimethyl-8H-quino[4,3,2-kl]acridinium methosulfate], the “Deaths [n/n], drug related death per mice per group” value in series [1] (Passage #1) is reported as 0/5; in series [1] (Passage #2), 0/6; in series [1] (Passage #3), 0/8; in series [1] (Passage #4), 0/5. Also, in series [1] (mouse, in vivo), the tolerability result was “well tolerated”. The “1/2 maximal tolerated dose” value in series [1] (oral, mouse strain used) came out at 5 mg/kg/day. Moreover, the “stimulation of growth, number of colonies compared to vehicle” value in series [2] (0.1 and 1 mircoM RHPS4, cord blood) is “doubling to tripling the number of colonies”; in series [3] (0.1 and 1 mircoM RHPS4, HEK293T), “doubling to tripling the number of colonies”. Besides, the “RHPS4 concentrations that inhibited colony formation” value in series [2] (cord blood cells) and in series [3] (human embryonic kidney cells) was > 1 mircoM each time. For the same compound, the “drug concentration at which cell kill of normal stem cells was seen” value in series [2] (cord blood colony forming units) and in series [3] (HEK293T colony forming units) was ~10 mircoM in each case. Further, the “least percentage (cut-off level) of growth induction” value is ≥ 150% in series [2] (individual cord blood experiments, % of control growth) and ≥ 150% in series [3] (individual HEK293T experiments, % of control growth). In series [3], the “concentrations that markedly inhibited tumor colony forming units and induced cord blood and HEK293T colony growth” value was 0.1-1 mircoM. Besides, the “sensitivity of cord blood and HEK293T colony forming units versus tumor cell colonies” value in series [3] is “over a log-fold less sensitive”. In addition, in series [3] (1 mircoM RHPS4, HEK293T), the “induction of colony growth” value is 2.4 fold. The “concentrations inhibiting normal colony formation above those inhibiting tumor cell colony formation” value in series [3] (human embryonic kidney and cord blood vs tumor cells) is listed as “over 25 fold”.

(Values after patent US20080279961A1, “TELOMERE TARGETING AGENTS AS STEM CELLS DIRECTED TREATMENTS” (priority 2007, published 2008).)
